# According to paper PMC3961306, “Comparison of the Cancer Gene Targeting and Biochemical Selectivities of All Targeted Kinase Inhibitors Approved for Clinical Use” (PLoS ONE, 2014):
# Where two headings read alike, the source gives them in different places.
# Legend:
# [1] = system: forty-four human cancer cell lines; experiment: Cell proliferation assay (ATPlite, 72 hours) in the 44 cell line Oncolines panel; type: cell-based; details: Homo sapiens
# [2] = target: T1, panel of more than 300 wild-type and mutant kinases (313 kinase panel) (Homo sapiens, UniProt P30530); experiment: Kinase profiling in a biochemical assay panel (mobility shift assays and ELISA), %-inhibition at 1 μM; selectivity entropy; details: kinase AXL; 1 μM compound
# T1 sequence (P30530 26-894): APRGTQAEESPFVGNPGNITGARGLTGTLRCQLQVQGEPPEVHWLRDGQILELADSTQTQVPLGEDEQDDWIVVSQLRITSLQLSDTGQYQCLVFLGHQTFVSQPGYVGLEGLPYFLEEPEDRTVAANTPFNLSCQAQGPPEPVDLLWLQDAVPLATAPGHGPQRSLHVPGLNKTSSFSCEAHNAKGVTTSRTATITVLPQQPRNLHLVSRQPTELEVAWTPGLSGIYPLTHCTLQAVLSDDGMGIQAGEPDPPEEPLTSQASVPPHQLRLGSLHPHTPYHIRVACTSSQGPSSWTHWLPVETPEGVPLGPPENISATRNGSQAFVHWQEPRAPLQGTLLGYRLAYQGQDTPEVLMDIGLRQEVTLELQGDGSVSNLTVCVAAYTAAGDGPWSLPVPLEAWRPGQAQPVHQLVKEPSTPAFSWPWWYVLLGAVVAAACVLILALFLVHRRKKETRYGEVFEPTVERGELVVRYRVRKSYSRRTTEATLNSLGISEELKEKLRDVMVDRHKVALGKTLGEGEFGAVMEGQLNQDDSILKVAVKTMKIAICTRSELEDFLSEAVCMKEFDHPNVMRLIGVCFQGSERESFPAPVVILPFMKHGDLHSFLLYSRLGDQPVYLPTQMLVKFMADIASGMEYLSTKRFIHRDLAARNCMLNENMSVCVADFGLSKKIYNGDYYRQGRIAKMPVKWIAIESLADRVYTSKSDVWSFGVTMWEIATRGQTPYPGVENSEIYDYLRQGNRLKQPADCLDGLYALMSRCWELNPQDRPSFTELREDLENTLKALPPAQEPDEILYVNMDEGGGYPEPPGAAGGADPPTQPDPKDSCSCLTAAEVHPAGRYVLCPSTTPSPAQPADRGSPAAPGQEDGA
# [3] = target: T2, panel of more than 300 wild-type and mutant kinases (313 kinase panel) (Homo sapiens, UniProt P51955); experiment: as above; details: kinase NEK2; 1 μM
# T2 sequence (P51955 1-445): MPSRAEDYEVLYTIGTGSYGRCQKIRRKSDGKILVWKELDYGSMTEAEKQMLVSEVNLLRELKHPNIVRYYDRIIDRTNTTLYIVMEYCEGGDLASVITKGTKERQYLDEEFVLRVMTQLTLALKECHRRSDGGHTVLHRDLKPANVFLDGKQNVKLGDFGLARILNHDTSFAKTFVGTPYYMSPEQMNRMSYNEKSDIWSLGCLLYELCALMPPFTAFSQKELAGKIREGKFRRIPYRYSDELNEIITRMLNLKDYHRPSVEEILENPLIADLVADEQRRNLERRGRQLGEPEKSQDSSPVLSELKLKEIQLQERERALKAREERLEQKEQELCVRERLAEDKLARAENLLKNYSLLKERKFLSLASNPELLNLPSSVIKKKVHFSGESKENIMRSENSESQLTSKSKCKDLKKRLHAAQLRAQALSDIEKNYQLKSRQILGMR
# [4] = target: panel of more than 300 wild-type and mutant kinases (313 kinase panel) (Homo sapiens, UniProt P00533, L858R); experiment: as above; details: kinase EGFR(L858R); compound at 1 μM
# [5] = target: panel of more than 300 wild-type and mutant kinases (313 kinase panel) (Homo sapiens, UniProt P00519, E255K); experiment: as above; details: kinase ABL(E255K); 1 μM compound
# [6] = target: panel of more than 300 wild-type and mutant kinases (313 kinase panel) (Homo sapiens, UniProt P11362, V561M); experiment: as above; details: kinase FGFR1(V561M); compound at 1 μM
# [7] = target: panel of more than 300 wild-type and mutant kinases (313 kinase panel) (Homo sapiens, UniProt P22694); experiment: as above; details: kinase PKACβ; 1 μM
# [8] = target: panel of more than 300 wild-type and mutant kinases (313 kinase panel) (Homo sapiens, UniProt Q9NQU5); experiment: as above; details: kinase PAK6; 1 μM
compound,measurement,setting,value
CCCS(=O)(=O)Nc1ccc(F)c(C(=O)c2c[nH]c3ncc(-c4ccc(Cl)cc4)cc23)c1F [vemurafenib],IC50,"[1]; A 172, read-out: cell panel IC50, A-172",> 31.6 µM
same,IC50,"[1]; A204, cell line A-204, read-out: cell panel IC50, A-204",> 31.6 µM
same,IC50,"[1]; A498, read-out: cell panel IC50, A-498",20.6 µM
same,IC50,"[1]; A549, read-out: cell panel IC50, A-549",29.2 µM
same,IC50,"[1]; A-375, cell line A375, read-out: cell panel IC50, A375",3.98 µM
same,IC50,"[1]; A-427, read-out: cell panel IC50, A-427",> 31.6 µM
same,IC50,"[1]; AU565, read-out: cell panel IC50, AU-565",> 31.6 µM
same,IC50,"[1]; BT-549, read-out: cell panel IC50, BT-549",26.9 µM
same,IC50,"[1]; HCT-116, read-out: cell panel IC50, HCT-116",> 31.6 µM
same,IC50,"[1]; K562, read-out: cell panel IC50, K-562",29.9 µM
same,IC50,"[1]; LS174T, read-out: cell panel IC50, LS 174T",> 31.6 µM
same,IC50,"[1]; SHP77, cell line SHP-77, read-out: cell panel IC50, SHP-77",> 31.6 µM
same,IC50,"[1]; SW-620, cell line SW620, read-out: cell panel IC50, SW620",31.6 µM
same,IC50,"[1]; U2OS, cell line U-2 OS, read-out: cell panel IC50, U-2 OS",> 31.6 µM
same,IC50,"[1]; cell line J82, read-out: cell panel IC50, J82",> 31.6 µM
same,IC50,"[1]; cell line PA-1, read-out: cell panel IC50, PA-1",10.3 µM
same,IC50,"[1]; cell line SJCRH30, read-out: cell panel IC50, SJCRH30",> 31.6 µM
same,IC50,"[1]; cell line SR, read-out: cell panel IC50, SR",8.86 µM
same,IC50,"[1]; U-87 MG cell line, ATPlite, 72 hours, read-out: IC50 in cell proliferation assay (table S5 cellpanel data)",> 31.6 µM
same,IC50,"[1]; cell line 769-P, read-out: cell panel IC50, 769-P",> 31.6 µM
same,IC50,"[1]; cell line 786-0, read-out: cell panel IC50, 786-0",22.6 µM
same,IC50,"[1]; cell line ACHN, read-out: cell panel IC50, ACHN",24 µM
same,IC50,"[1]; cell line AN3 CA, read-out: cell panel IC50, AN3 CA",> 31.6 µM
same,IC50,"[1]; cell line BT-20, read-out: cell panel IC50, BT-20",> 31.6 µM
same,IC50,"[1]; cell line BxPC-3, read-out: cell panel IC50, BxPC-3",14.2 µM
same,IC50,"[1]; cell line C-33 A, read-out: cell panel IC50, C-33 A",> 31.6 µM
same,IC50,"[1]; cell line CAL 27, read-out: cell panel IC50, CAL 27",> 31.6 µM
same,IC50,"[1]; cell line CCRF-CEM, read-out: cell panel IC50, CCRF-CEM",23 µM
same,IC50,"[1]; cell line DLD-1, read-out: cell panel IC50, DLD-1",> 31.6 µM
same,IC50,"[1]; cell line FaDu, read-out: cell panel IC50, FaDu",> 31.6 µM
same,IC50,"[1]; cell line HCT-15, read-out: cell panel IC50, HCT-15",30.6 µM
same,IC50,"[1]; cell line Hs 578T, read-out: cell panel IC50, Hs 578T",24.8 µM
same,IC50,"[1]; cell line Jurkat E6.1, read-out: cell panel IC50, Jurkat E6.1",27.1 µM
same,IC50,"[1]; cell line LoVo, read-out: cell panel IC50, LoVo",31.3 µM
same,IC50,"[1]; cell line MG-63, read-out: cell panel IC50, MG-63",> 31.6 µM
same,IC50,"[1]; cell line MOLT-4, read-out: cell panel IC50, MOLT-4",31.1 µM
same,IC50,"[1]; cell line MeWo, read-out: cell panel IC50, MeWo",> 31.6 µM
same,IC50,"[1]; cell line NCI-H82, read-out: cell panel IC50, NCI-H82",30.4 µM
same,IC50,"[1]; cell line NCI-H460, read-out: cell panel IC50, NCI-H460",30.4 µM
same,IC50,"[1]; cell line OVCAR-3, read-out: cell panel IC50, OVCAR-3",> 31.6 µM
same,IC50,"[1]; cell line RPMI-7951, read-out: cell panel IC50, RPMI-7951",20.9 µM
same,IC50,"[1]; cell line SK-N-AS, read-out: cell panel IC50, SK-N-AS",> 31.6 µM
same,IC50,"[1]; cell line SW48, read-out: cell panel IC50, SW48",> 31.6 µM
same,IC50,"[1]; cell line SW480, read-out: cell panel IC50, SW480",22.5 µM
same,"%-inhibition, AXL",[2],20%
same,%-inhibition of NEK2,[3],-1%
same,%-inhibition of EGFR(L858R),[4],0.505%
same,"%-inhibition, ABL(E255K)",[5],2.49%
same,%-inhibition of FGFR1(V561M),[6],5.37%
same,%-inhibition of PKACβ,[7],2.66%
same,%-inhibition of PAK6,[8],-7%
